# Data published in ChEMBL document CHEMBL2375302, “Synthesis, antimicrobial, antiquorum-sensing, antitumor and cytotoxic activities of new series of fused [1,3,4]thiadiazoles” (Eur J Med Chem, 2013).
# How the values were obtained:
# SNB-75 = test: Growth inhibition of human SNB75 cells at 10 uM after 48 hrs by coulter counter analysis relative to control; format: functional; conditions: SNB-75, 48 h, read-out: GI
# A549 = test: Growth inhibition of human A549 cells at 10 uM after 48 hrs by coulter counter analysis relative to control; format: functional; conditions: A549, 48 h, read-out: GI
# OVCAR-5 = test: Growth inhibition of human OVCAR5 cells at 10 uM after 48 hrs by coulter counter analysis relative to control; format: functional; conditions: OVCAR-5, 48 h, read-out: GI
# A498 = test: Growth inhibition of human A498 cells at 10 uM after 48 hrs by coulter counter analysis relative to control; format: functional; conditions: A498, 48 h, read-out: GI
# Hs-578T = test: Growth inhibition of human Hs578T cells at 10 uM after 48 hrs by coulter counter analysis relative to control; format: functional; conditions: read-out: GI
# CCRF-CEM = test: Growth inhibition of human CCRF-CEM cells at 10 uM after 48 hrs by coulter counter analysis relative to control; format: functional; conditions: read-out: GI
# SK-MEL-28 = test: Growth inhibition of human SK-MEL-28 cells at 10 uM after 48 hrs by coulter counter analysis relative to control; format: functional; conditions: SK-MEL-28, 48 h, read-out: GI
# SF-539 = test: Growth inhibition of human SF539 cells at 10 uM after 48 hrs by coulter counter analysis relative to control; format: functional; conditions: SF-539, 48 h, read-out: GI
# IGROV-1 = test: Growth inhibition of human IGROV1 cells at 10 uM after 48 hrs by coulter counter analysis relative to control; format: functional; conditions: IGROV-1, 48 h, read-out: GI
# SK-MEL-2 = test: Growth inhibition of human SK-MEL-2 cells at 10 uM after 48 hrs by coulter counter analysis relative to control; format: functional; conditions: SK-MEL-2, 48 h, read-out: GI
# LOX IMVI = test: Growth inhibition of human LOXIMVI cells at 10 uM after 48 hrs by coulter counter analysis relative to control; format: functional; conditions: read-out: GI
# SF-295 = test: Growth inhibition of human SF295 cells at 10 uM after 48 hrs by coulter counter analysis relative to control; format: functional; conditions: SF-295, 48 h, read-out: GI
# NCI-H23 = test: Growth inhibition of human NCI-H23 cells at 10 uM after 48 hrs by coulter counter analysis relative to control; format: functional; conditions: NCI-H23, 48 h, read-out: GI
# SN12C = test: Growth inhibition of human SN12C cells at 10 uM after 48 hrs by coulter counter analysis relative to control; format: functional; conditions: read-out: GI
# [1] = Toxicity against brine shrimp larvae assessed as mortality at 100 ug/mL after 24 hrs by binocular microscopic analysis relative to control; format: organism-based; conditions: artemia salina, in vivo
# Aspergillus fumigatus = test: Antifungal activity against Aspergillus fumigatus Af293 at 5 mg/mL after 48 hrs; format: functional; conditions: Af293, 48 h, read-out: DIZ
# NCI-H460 = test: Growth inhibition of human NCI-H460 cells at 10 uM after 48 hrs by coulter counter analysis relative to control; format: functional; conditions: NCI-H460, 48 h, read-out: GI
# HCT-116 = test: Growth inhibition of human HCT116 cells at 10 uM after 48 hrs by coulter counter analysis relative to control; format: functional; conditions: HCT-116, 48 h, read-out: GI
# Staphylococcus aureus = test: Antibacterial activity against Staphylococcus aureus at 5 mg/mL after 24 hrs; format: functional; conditions: read-out: DIZ
# DU-145 = test: Growth inhibition of human DU145 cells at 10 uM after 48 hrs by coulter counter analysis relative to control; format: functional; conditions: DU-145, 48 h, read-out: GI
# HOP-62 = test: Growth inhibition of human HOP62 cells at 10 uM after 48 hrs by coulter counter analysis relative to control; format: functional; conditions: HOP-62, 48 h, read-out: GI
# PC-3 = test: Growth inhibition of human PC3 cells at 10 uM after 48 hrs by coulter counter analysis relative to control; format: functional; conditions: PC-3, 48 h, read-out: GI
# TK-10 = test: Growth inhibition of human TK10 cells at 10 uM after 48 hrs by coulter counter analysis relative to control; format: functional; conditions: TK-10, 48 h, read-out: GI
# [2] = Toxicity against brine shrimp larvae assessed as mortality at 500 ug/mL after 24 hrs by binocular microscopic analysis relative to control; format: organism-based; conditions: artemia salina, in vivo
# NCI-H522 = test: Growth inhibition of human NCI-H522 cells at 10 uM after 48 hrs by coulter counter analysis relative to control; format: functional; conditions: NCI-H522, 48 h, read-out: GI
# UACC-62 = test: Growth inhibition of human UACC62 cells at 10 uM after 48 hrs by coulter counter analysis relative to control; format: functional; conditions: UACC-62, 48 h, read-out: GI
# BT-549 = test: Growth inhibition of human BT549 cells at 10 uM after 48 hrs by coulter counter analysis relative to control; format: functional; conditions: BT-549, 48 h, read-out: GI
# HCT-15 = test: Growth inhibition of human HCT15 cells at 10 uM after 48 hrs by coulter counter analysis relative to control; format: functional; conditions: HCT-15, 48 h, read-out: GI
# MCF7 = test: Growth inhibition of human MCF7 cells at 10 uM after 48 hrs by coulter counter analysis relative to control; format: functional; conditions: MCF7, 48 h, read-out: GI
# HOP-92 = test: Growth inhibition of human HOP92 cells at 10 uM after 48 hrs by coulter counter analysis relative to control; format: functional; conditions: HOP-92, 48 h, read-out: GI
# COLO 205 = test: Growth inhibition of human COLO205 cells at 10 uM after 48 hrs by coulter counter analysis relative to control; format: functional; conditions: COLO 205, 48 h, read-out: GI
# Aspergillus flavus = test: Antifungal activity against Aspergillus flavus 3372 at 5 mg/mL after 48 hrs; format: functional; conditions: Aspergillus flavus, 3372, 48 h; read-out: DIZ
# Bacillus cereus = test: Antibacterial activity against Bacillus cereus at 5 mg/mL after 24 hrs; format: functional; conditions: read-out: DIZ
# OVCAR-4 = test: Growth inhibition of human OVCAR4 cells at 10 uM after 48 hrs by coulter counter analysis relative to control; format: functional; conditions: OVCAR-4, 48 h, read-out: GI
# M14 = test: Growth inhibition of human M14 cells at 10 uM after 48 hrs by coulter counter analysis relative to control; format: functional; conditions: M14, 48 h, read-out: GI
# K562 = test: Growth inhibition of human K562 cells at 10 uM after 48 hrs by coulter counter analysis relative to control; format: functional; conditions: K562, 48 h, read-out: GI
# SF-268 = test: Growth inhibition of human SF268 cells at 10 uM after 48 hrs by coulter counter analysis relative to control; format: functional; conditions: SF-268, 48 h, read-out: GI
# MOLT-4 = test: Growth inhibition of human MOLT4 cells at 10 uM after 48 hrs by coulter counter analysis relative to control; format: functional; conditions: MOLT-4, 48 h, read-out: GI
SMILES,inhibition of growth at 10 µM (SNB-75) [%],inhibition of growth at 10 µM (A549) [%],inhibition of growth at 10 µM (OVCAR-5) [%],inhibition of growth at 10 µM (A498) [%],inhibition of growth at 10 µM (Hs-578T) [%],inhibition of growth at 10 µM (CCRF-CEM) [%],inhibition of growth at 10 µM (SK-MEL-28) [%],inhibition of growth at 10 µM (SF-539) [%],inhibition of growth at 10 µM (IGROV-1) [%],inhibition of growth at 10 µM (SK-MEL-2) [%],inhibition of growth at 10 µM (LOX IMVI) [%],inhibition of growth at 10 µM (SF-295) [%],inhibition of growth at 10 µM (NCI-H23) [%],inhibition of growth at 10 µM (SN12C) [%],"mortality at 24 h, 100 ug/mL [1] [%]",zone of inhibition at 5000 µg/mL (Aspergillus fumigatus) [mm],inhibition of growth at 10 µM (NCI-H460) [%],inhibition of growth at 10 µM (HCT-116) [%],zone of inhibition at 5000 µg/mL (Staphylococcus aureus) [mm],inhibition of growth at 10 µM (DU-145) [%],other results
CCOC(=O)C1C(=O)N=C2SC(S(N)(=O)=O)=NN2C1c1ccc(N(C)C)cc1 (stereo unspecified),10.1,< 10,< 10,16.5,18.5,< 10,< 10,< 10,< 10,< 10,11.7,< 10,< 10,< 10,83.3,4,< 10,< 10,5,< 10,"inhibition of growth at 10 µM (HOP-62): < 10%; inhibition of growth at 10 µM (PC-3): 11.4%; inhibition of growth at 10 µM (TK-10): < 10%; mortality at 24 h, 500 ug/mL [2]: 93.3%; inhibition of growth at 10 µM (NCI-H522): 19.3%; inhibition of growth at 10 µM (UACC-62): 13.7%; inhibition of growth at 10 µM (BT-549): < 10%; inhibition of growth at 10 µM (HCT-15): < 10%; inhibition of growth at 10 µM (MCF7): 10.2%; inhibition of growth at 10 µM (HOP-92): 51.2%; inhibition of growth at 10 µM (COLO 205): < 10%; zone of inhibition at 5000 µg/mL (Aspergillus flavus): < 2 mm; zone of inhibition at 5000 µg/mL (Bacillus cereus): 5 mm; inhibition of growth at 10 µM (OVCAR-4): < 10%; inhibition of growth at 10 µM (M14): < 10%; inhibition of growth at 10 µM (K562): < 10%; inhibition of growth at 10 µM (SF-268): < 10%; inhibition of growth at 10 µM (MOLT-4): < 10%"
N#Cc1cnc2sc(S(N)(=O)=O)nn2c1=N,< 10,< 10,< 10,14.9,< 10,< 10,< 10,< 10,< 10,< 10,15.1,< 10,< 10,< 10,80,< 2,< 10,< 10,< 2,< 10,"inhibition of growth at 10 µM (HOP-62): 10.7%; inhibition of growth at 10 µM (PC-3): < 10%; inhibition of growth at 10 µM (TK-10): < 10%; mortality at 24 h, 500 ug/mL [2]: 90%; inhibition of growth at 10 µM (NCI-H522): < 10%; inhibition of growth at 10 µM (UACC-62): < 10%; inhibition of growth at 10 µM (BT-549): < 10%; inhibition of growth at 10 µM (HCT-15): < 10%; inhibition of growth at 10 µM (MCF7): < 10%; inhibition of growth at 10 µM (HOP-92): 20.3%; inhibition of growth at 10 µM (COLO 205): < 10%; zone of inhibition at 5000 µg/mL (Aspergillus flavus): < 2 mm; zone of inhibition at 5000 µg/mL (Bacillus cereus): < 2 mm; inhibition of growth at 10 µM (OVCAR-4): < 10%; inhibition of growth at 10 µM (M14): < 10%; inhibition of growth at 10 µM (K562): < 10%; inhibition of growth at 10 µM (SF-268): < 10%; inhibition of growth at 10 µM (MOLT-4): < 10%"
